PubChem BioAssay (NCI)
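The compound was tested at five concentrations on cells cultured in 96-well plates, with a 48-hour exposure period. Abbreviation: GI50, concentration required for 50% inhibition of growth. TGI denotes the concentration required for complete inhibition of growth.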

How the values were obtained:
Assay in all cases: inhibition of tumour cell growth, NCI panel, 48 h
HCT-15 colon = test system: HCT-15 colon
MCF7 breast = test system: MCF7 breast
SF-295 CNS = test system: SF-295 CNS
LOX IMVI melanoma = test system: LOX IMVI melanoma
UACC-257 melanoma = test system: UACC-257 melanoma
U251 CNS = test system: U251 CNS
SNB-19 CNS = test system: SNB-19 CNS
HL-60(TB) leukemia = test system: HL-60(TB) leukemia
LXFL 529 NSCLC = test system: LXFL 529 NSCLC
HOP-18 NSCLC = test system: HOP-18 NSCLC
XF 498 CNS = test system: XF 498 CNS
DMS 114 small cell lung = test system: DMS 114 small cell lung

Compound | TGI (HCT-15 colon) [µM] | TGI (MCF7 breast) [µM] | TGI (SF-295 CNS) [µM] | TGI (LOX IMVI melanoma) [µM] | TGI (UACC-257 melanoma) [µM] | TGI (U251 CNS) [µM] | TGI (SNB-19 CNS) [µM] | TGI (HL-60(TB) leukemia) [µM] | TGI (LXFL 529 NSCLC) [µM] | TGI (HOP-18 NSCLC) [µM] | TGI (XF 498 CNS) [µM] | TGI (DMS 114 small cell lung) [µM] | GI50 (HCT-15 colon) [µM] | GI50 (MCF7 breast) [µM] | GI50 (SF-295 CNS) [µM] | GI50 (LOX IMVI melanoma) [µM] | GI50 (UACC-257 melanoma) [µM] | GI50 (U251 CNS) [µM] | GI50 (SNB-19 CNS) [µM] | GI50 (HL-60(TB) leukemia) [µM]
COC(=O)C1(N2CCOCC2)CCC([C@@H](c2ccccc2)C(C)[N+](=O)[O-])C1 (stereo partly specified) | > 100 | 54.5 | > 100 | > 100 | 86.9 | > 100 | > 100 | > 100 | – | – | – | – | – | – | – | – | – | – | – | –
CCCCCCCCCCCCCC(=O)OCC1OC(=O)C(O)C1O (stereo unspecified) | – | – | > 100 | > 100 | > 100 | > 100 | > 100 | > 100 | > 100 | > 100 | > 100 | > 100 | – | – | – | – | – | – | – | –
CC(=O)OCc1cc[c]([Hg][Cl])o1 | 3.66 | 18.3 | 28.8 | 4.96 | 26.8 | 5.02 | 12 | 6.28 | – | – | – | – | 1.62 | 0.994 | 14.3 | 1.96 | 13.5 | 2 | 3.08 | 2.46
CC#CC#C/C=C1/C=CC2(CCCCO2)O1 (stereo unspecified) | > 100 | > 100 | > 100 | > 100 | > 100 | > 100 | > 100 | 47.4 | – | – | – | – | – | – | – | – | – | – | – | –
N/C(=N/O)NOCCC(N)C(=O)O (stereo unspecified) | > 100 | > 100 | > 100 | > 100 | > 100 | > 100 | > 100 | > 100 | – | – | – | – | > 100 | > 100 | > 100 | > 100 | > 100 | > 100 | > 100 | > 100
COc1ccc(CC2OC3(CCCCC3)CC3CCCCN32)cc1 (stereo unspecified) | > 100 | > 100 | > 100 | > 100 | > 100 | > 100 | > 100 | > 100 | – | – | – | – | – | – | – | – | – | – | – | –
NS(=O)(=O)c1ccc(NC(=O)Nc2cccc3ccccc23)cc1 | > 100 | > 100 | > 100 | > 100 | > 100 | 36.2 | 44.8 | > 100 | – | – | – | – | – | – | – | – | – | – | – | –
O=C1/C(=C/c2ccc(C(=O)O)cc2)CNC/C1=C\c1ccc(C(=O)O)cc1 | > 100 | – | > 100 | – | > 100 | > 100 | – | > 100 | > 100 | > 100 | > 100 | > 100 | – | – | – | – | – | – | – | –
Nc1ncnc2c1ncn2Cc1ccc(CCl)cc1 | 41.5 | 62.7 | 34.4 | 51.7 | 34.8 | 40.6 | 37.8 | > 100 | – | – | – | – | 21.9 | 11.7 | 15.7 | 23.5 | 17.9 | 21.9 | 16 | 54.7
Clc1ccc(Nc2nnc(COc3ccccc3)c3ccccc23)cc1 | 6.75 | 6.07 | 6.7 | 4.85 | 5.82 | 7.47 | 12 | 11.9 | – | – | – | – | 2.05 | 1.18 | 1.65 | 1.29 | 2.54 | 2.93 | 3.2 | 3.56
COc1cc(/C=C/[N+](=O)[O-])cc(OC)c1 | 6.11 | 3.61 | 7.29 | 2.75 | 7.57 | 5.48 | 22.1 | 5.68 | – | – | – | – | 1.99 | 1.39 | 2.54 | 1.42 | 2.48 | 2.22 | 8.49 | 2.22
O=S1c2ccccc2N=C(c2cccs2)CC1c1ccccc1O (stereo unspecified) | > 100 | – | > 100 | > 100 | > 100 | – | > 100 | > 100 | > 100 | – | > 100 | > 100 | – | – | – | – | – | – | – | –
C/C(COc1ccccc1)=N\NC(N)=S | > 100 | – | > 100 | > 100 | > 100 | > 100 | – | > 100 | > 100 | – | > 100 | > 100 | – | – | – | – | – | – | – | –
COc1ccc(C2CC(=O)Nc3c2c(C)nn3-c2nc3ccccc3[nH]2)cc1OC (stereo unspecified) | > 58.9 | > 100 | 6.91 | 19.1 | 55.4 | 19.7 | > 100 | 12.6 | – | – | – | – | 4.76 | 3.78 | 1.77 | 4.51 | 6.46 | 4.58 | 8.64 | 3.29
CCN(CC(O)COc1ccc2c(c1)[n+]([O-])nc(N)[n+]2[O-])C(C)=O (stereo unspecified) | > 100 | > 100 | > 100 | > 100 | > 100 | > 100 | > 100 | > 100 | – | – | – | – | – | – | – | – | – | – | – | –
CS(=O)(=O)Nc1cc(-c2ccc3ncnc(Nc4ccc(OCc5ccccn5)c(Cl)c4)c3c2)cnc1Cl | > 42 | > 100 | 4.75 | 1.92 | 7.1 | 2.31 | > 100 | 2.72 | – | – | – | – | 1.13 | 0.185 | 0.526 | 0.268 | 0.378 | 0.316 | 0.449 | 0.23
Fc1ccc(Nc2ccnc(N3CCN(c4ccnc5cc(Cl)ccc45)CC3)n2)cc1 | 7.93 | 8.26 | 3.2 | 3.62 | 4.27 | 5.27 | > 100 | 6.44 | – | – | – | – | 2.3 | 2.36 | 1.33 | 1.82 | 1.95 | 1.87 | 3.99 | 2.59
S=C1NC(c2ccccc2)NC(c2ccccc2)S1 (stereo unspecified) | > 100 | > 100 | > 100 | > 100 | > 100 | > 100 | > 100 | > 100 | – | – | – | – | – | – | – | – | – | – | – | –
Cc1ccc(O)c(C(=O)/C=C/c2ccccc2)c1 | > 100 | > 100 | > 100 | > 100 | > 100 | > 100 | > 100 | > 100 | – | – | – | – | – | – | – | – | – | – | – | –
